Experimental findings from patent US20130137767A1, “Methods and Compositions for Treating Arthritis with Docosahexaenoic Acid” (DSM IP ASSETS B.V., priority 2010, published 2013) are described below.

What all share (format): in vivo, Male DBA/1O1aHsd mice
The nature of experiment [1]: CIA-EE (Example 1): serum phospholipid fatty acid levels by FAME analysis. On the procedure: (§1) The appropriate ethyl esters were blended into the base diet to provide approximately 2500 and 5000 mg/kg polyunsaturated fatty acid (PUFA) per day. The human equivalent doses (HED) were approximately 12 g/day and 22 g/day, respectively. The 2500 mg/kg EE diets contained the following fat blend: 1 part flax, 12 parts HCOC and 23 parts HO-SAFF. The 5000 mg/kg EE diets contained a fat blend consisting of: 1 part flax, 5 parts HCOC and 20 parts HO-SAFF. All study diets provided a total of 7% fat. Animals were fed study diets for approximately 30 days prior to the first collagen injection at day 0 and remained on the diets until study termination (day 45). Animals in the No Disease control and Dexamethasone groups were fed the diet containing OA-EE. Following a second collagen injection on day 21, arthritis severity was scored daily. Blood samples were collected at day 21 and day 45. Joints, 6 per an animal, were collected for histology and pathology on day 45.
Serum phospholipid fatty acid levels were determined by FAME analysis (FIG. 5). Treatment with DHA-EE elevated serum DHA levels 3-4 fold, as compared the OA-EE (placebo) control, whereas DPAn6-EE elevated serum DPAn6 20-35 fold. Serum EPA levels were elevated when dosed with the DHA/EPA-EE blend 8-15 fold and 4-7 fold when dosed with DHA-EE, as compared to the OA-EE (placebo) control. […]

Experiment [2] deals with anti-collagen antibodies. The experiment in a line: CIA EE vs. TG (Example 2): serum anti-collagen antibodies. The following applies: for serum anti-collagen antibodies: day 21. On the procedure:
(§2) Male DBA/1O1aHsd mice were enrolled, quarantined, and feed study diets following the protocols described in Example 1 (CIA-EE Study). EE and TG oils were blended into the base diet to provide 2500 mg/kg PUFA per day (HED approximately 12 g/day). A single dose of PUFA per day (HED approximately 5 g/day). The 1000 mg/kg DHA-EE dose was equivalent to the amount of DHA administered in the DHA/EPA-EE blend. The fat blend the 2500 mg/kg EE diets consisted of approximately: 1 part flax, 12 parts HCOC and 23 parts HO-SAFF; 1000 mg/kg EE diet: 1 part flax, 12 parts HCOC and 32 parts HO-SAFF; 2500 mg/kg DHASCO® oil diet: 1 part flax, 8 parts HCOC, 17 parts HO-SAFF and 15 parts soybean oil; 2500 mg/kg DHA-S oil diet: 1 part flax, 5 parts HCOC, 16 parts HO-SAFF and 6 parts soybean oil. 2500 mg/kg DHA/EPA (Nordic Naturals fish oil) diet: 1 part flax, 21 parts HCOC, 18 parts HO-SAFF and 13 parts soybean oil. The monounsaturate control animals received a fat blend of 1 part flax, 7 parts HCOC and 25 parts HO-SAFF. All study diets provided a total of 7% fat. Animals in the No Disease control and Dexamethasone groups were fed the diet containing OA-EE. Mice received collagen injections on day 0 and day 21, as described previously. Blood samples were collected at day 21 and day 45. At day 45, joints were collected for histology and pathology.
A reduction in serum anti-collagen antibodies also correlated with a reduction in disease severity. […] (FIG. 12).

The subject of experiment [3] is anti-collagen antibodies. The experiment in a line: CIA-EE (Example 1): anti-collagen antibody production. The following applies: measured day 21 and day 45, vs OA-EE placebo. On the procedure: as §1
Anti-collagen antibody production was measured prior to the antigen challenge (day 21) and at study termination (day 45). […] Means (n=5)±SD. *p<0.05**p<0.01.

For experiment [4], the system named is Collagen-Induced Arthritis (CIA). Description: Collagen-Induced Arthritis, EE vs. TG (Example 2): clinical arthritis severity and incidence. The note with it: for incidence of disease: day 45.
Source text: as §2, with “The anti-arthritic activity of DHA, DHA/DPAn6 and DHA/EPA, administered as EE or triglyceride oils (TG), in a chronic mouse model of inflammation, Collagen-Induced Arthritis (CIA), was studied. Methods used in this study were similar to those described in Example 1 (CIA-EE Study). Study groups consisted of: Male” for “Male”, “pathology. Data was analyzed and compared by one-way ANOVA using the Bonferroni post-test to compare treatment groups to respective placebo control and to make comparisons between treatment groups (GraphPad, Prism, Version 4.0). Effects were considered to be statistically significant at p<0.05. Arthritis severity was assessed from day 18 to 45; a score of 0 represented an animal devoid of clinical arthritis symptoms and a score of 5 represented advanced clinical arthritis. Scores from 0-5 (most severe) were assigned to each digit on the fore and hind limbs based on erythema, swelling and mobility the mean arthritis severity per animal was determined.” for “pathology.”

Molecules are shown by their SMILES.

As for `CC/C=C\C/C=C\C/C=C\C/C=C\C/C=C\C/C=C\CCC(=O)OCC` [DHA-EE], the “serum ARA levels, decrease vs OA-EE (placebo) control” value in experiment [1] (2500 mg/kg) and in experiment [1] (5000 mg/kg) was “approximately 90%” throughout. The serum anti-collagen antibodies entry in experiment [2] (1000 mg/kg) is reported as “significantly reduced”; in experiment [2] (2500 mg/kg PUFA, FIG. 12), “significantly reduced”. In addition, in experiment [2] (day 45, 2500 mg/kg PUFA, FIG. 12), the “serum anti-collagen antibody levels” value was “significantly reduced”. In addition, the “level of plasma anti-collagen antibodies” value in experiment [3] (2500 mg/kg) and in experiment [3] (5000 mg/kg) was “reduced the level of anti-collagen antibodies” throughout. The “arthritis severity score as area under the curve (AUC)” value is recorded as “significantly reduced arthritis” in experiment [4] (1000 mg/kg, days 18-45, vs OA-EE (placebo) control, FIG. 8B) and “significantly reduced arthritis” in experiment [4] (2500 mg/kg PUFA, days 18-45, vs monounsaturated or OA-EE (placebo) control, FIG. 8A/B). Also, the “arthritis severity, comparison between treatment groups” value in experiment [4] (2500 mg/kg PUFA, Dexamethasone 0.1 mg/kg) is reported as “more potent than DHA-EPA-EE”. Moreover, the incidence of disease came out at 73% in experiment [4] (1000 mg/kg, FIG. 9B) and 60% in experiment [4] (2500 mg/kg PUFA, FIG. 9A/B). Further, the arthritis severity score result in experiment [4] (days 18-45, FIG. 7A/B, dose not stated) is “reduced arthritis severity”.
